The test system of test [1] is Mycosphaerella graminicola; Anamorph: Septoria tritici; Bayer Code SEPTTR (standard laboratory isolate, SI SEPTTR). The test is described as follows: Type A (high volume) assay, leaf blotch of wheat, standard laboratory SEPTTR isolate (SI SEPTTR). Format: in vivo, Mycosphaerella graminicola on wheat plants (variety Yuma). The note with it: Zymoseptoria tritici, standard laboratory isolate, high volume, 50 ppm, wheat (Yuma). How it is done: Example A: Evaluation of Fungicidal Activity: Leaf Blotch of Wheat (Mycosphaerella graminicola; Anamorph: Septoria tritici; Bayer Code SEPTTR)
For Type A assays, technical grades of the experimental fungicides in Table 4 below were dissolved in acetone, and then mixed with nine volumes of water containing 110 ppm Triton X-100. The fungicide solutions were applied onto wheat seedlings using an automated booth sprayer. For Type B assays, emulsifiable concentrate (EC) formulations of technical grades of the experimental fungicides in Table 4 below were prepared at 10% (w/v), and then mixed with 150 volumes of 0.1% Trycol 5941. These solutions were applied onto wheat seedlings using an automated track sprayer at 200 L/ha. All sprayed plants were allowed to air dry prior to further handling.
Wheat plants (variety Yuma) were grown from seed in a greenhouse in 50% mineral soil/50% soil-less Metro mix until the first leaf was fully emerged, with 7-10 seedlings per pot. Prior to or after application of experimental fungicides, plants were inoculated either with spores of a standard laboratory SEPTTR isolate (SI SEPTTR) or with spores from a SEPTTR field isolate collected from Wellsbourne, England in 2012 (FI SEPTTR). After inoculation the plants were kept for 3 days at 20° C. in 100% relative humidity (one day in a dark dew chamber followed by two days in a lighted dew chamber). Plants were then transferred to a 20° C. greenhouse for disease development. When disease symptoms were fully expressed on untreated plants, infection levels on treated plants were assessed on a scale of 0 to 100 percent disease severity. Percent disease control was calculated using the ratio of disease severity on treated plants relative to untreated plants.

The nature of test [2]: Type B (low volume, EC formulation, track sprayer 200 L/ha) assay, leaf blotch of wheat, SEPTTR field isolate (FI SEPTTR). Format: in vivo, Mycosphaerella graminicola on wheat plants (variety Yuma). The note with it: Zymoseptoria tritici, 72 h, field isolate, low volume EC, 100 g/ha, wheat (Yuma). The method, boiled down: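 Wheat seedlings (Yuma, first leaf emerged) sprayed with acetone/Triton X-100 solutions (Type A) or 10% EC diluted in 0.1% Trycol at 200 L/ha (Type B), inoculated before or after spraying. Inoculated plants held 3 days at 20 °C, 100% RH, then greenhouse; % disease control from severity versus untreated plants.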

[3] abbreviates: 24 h, 1 Day Protectant, read-out: Disease Control, SI SEPTTR Type A Assay (50 ppm) 1 DP.
Where [4] appears, read: 3 Day Curative, read-out: Disease Control, FI SEPTTR Type B Assay (100 g/ha) 3 DC.
Where [5] appears, read: 3 Day Protectant, read-out: Disease Control, FI SEPTTR Type B Assay (100 g/ha) 3 DP.
Where [6] appears, read: 72 h, 3 Day Curative, read-out: Disease Control, SI SEPTTR Type A Assay (50 ppm) 3 DC.

Like-named read-outs stand apart in the source and are kept apart here.

Here are results for 16 compounds from patent publication US10167300B2, “Metalloenzyme inhibitor compounds as fungicides” (priority 2014, dated 2019).

Turning to `CC(C)(C)C(O)(c1cncnc1)c1ccc(-c2ccc(C3(C(F)(F)F)CC3)cc2)cn1` (stereo not shown) [Compound 160], in test [1] (setting [3]), the pest or weed control at 50 ppm fell in the range of 80 to 100%. For the same compound, the pest or weed control at 100 g/ha in test [2] (setting [4]) and in test [2] (setting [5]) was 80 to 100% in each case.
For the compound `CC(F)(F)c1ccc(-c2ccc(C(O)(c3cncnc3)C(C)(C)C)nc2)cc1` (stereo not shown) [Compound 155], the pest or weed control at 50 ppm in test [1] (setting [3]) was in the range of 80 to 100%. Moreover, the pest or weed control at 100 g/ha in test [2] (setting [4]) and in test [2] (setting [5]) was 60 to 79% throughout.
`CC(O)(c1cncnc1)c1ccc(-c2ccc(OC(F)(F)F)cc2)cn1` (stereo not shown) [Compound 99]: the pest or weed control at 50 ppm in test [1] (setting [3]) was 80 to 100%. Besides, the pest or weed control at 100 g/ha was less than 40% in test [2] (setting [4]) and 40 to 59% in test [2] (setting [5]).
As for `COc1ccc(-c2ccc(C(O)(c3cncnc3)C(C)(C)C)nc2)c(OC(F)(F)F)c1` (stereo not shown) [Compound 163], in test [1] (setting [3]), the pest or weed control at 50 ppm lay within 80 to 100%. The pest or weed control at 100 g/ha in test [2] (setting [4]) and in test [2] (setting [5]) was 80 to 100% in each case.
`CC(C)(C)C(O)(c1cncnc1)c1ccc(-c2ccc(OC(F)(F)F)cn2)cn1` (stereo not shown) [Compound 150]: the pest or weed control at 50 ppm in test [1] (setting [3]) lay within 80 to 100%. Also, the pest or weed control at 100 g/ha in test [2] (setting [4]) and in test [2] (setting [5]) was 80 to 100% each time.
For the compound `CCOc1ccc(-c2ccc(C(O)(c3cncnc3)C(C)(C)C)nc2)cc1` (stereo not shown) [Compound 111], the pest or weed control at 50 ppm in test [1] (setting [3]) was in the range of 60 to 79%.
Regarding `CC(C)(C)C(O)(c1cncnc1)c1ccc(-c2ccc(OC(F)(F)C(F)(F)F)cc2)cn1` (stereo not shown) [Compound 161], the pest or weed control at 50 ppm in test [1] (setting [3]) lay in the range of 80 to 100%. For the same compound, the pest or weed control at 100 g/ha in test [2] (setting [4]) and in test [2] (setting [5]) was 80 to 100% each time.
On to `OC(CCc1ccc(Cl)cc1)(Cn1cnnn1)c1ccc(Oc2ccc(C(F)(F)F)cn2)cn1` (stereo not shown) [Compound 15], for which the pest or weed control at 50 ppm in test [1] (setting [3]) fell in the range of 60 to 79%; in test [1] (setting [6]), 40 to 59%.
With `CC(C)(C)C(O)(c1cncnc1)c1ccc(-c2ccc(C#N)nc2)cn1` (stereo not shown) [Compound 108], in test [1] (setting [3]), the pest or weed control at 50 ppm lay in the range of 60 to 79%.
Regarding `COc1ccc(-c2ccc(C(O)(c3cncnc3)C(C)(C)C)nc2)c(F)c1` (stereo not shown) [Compound 162], the pest or weed control at 50 ppm in test [1] (setting [3]) was 80 to 100%. The pest or weed control at 100 g/ha in test [2] (setting [4]) and in test [2] (setting [5]) was 80 to 100% in each case.
Regarding `CCC(O)(c1cncnc1)c1ccc(Oc2cccc(Cl)n2)cn1` (stereo not shown) [Compound 70], the pest or weed control at 50 ppm in test [1] (setting [3]) is 40 to 59%.
In the case of `CC(C)C(O)(Cn1cnnn1)c1ccc(-c2ccc(OCC(F)(F)F)nc2)cn1` (stereo not shown) [Compound 62], the pest or weed control at 50 ppm in test [1] (setting [3]) and in test [1] (setting [6]) was 40 to 59% each time.
In the case of `CC(C)(C)C(O)(c1cncnc1)c1ccc(-c2cnc(C(F)(F)F)cc2C(F)(F)F)cn1` (stereo not shown) [Compound 128], in test [1] (setting [3]), the pest or weed control at 50 ppm was 80 to 100%.
As to `C=CCCC(O)(c1cncnc1)c1ccc(Oc2ccc(OC(F)(F)F)cc2)cn1` (stereo not shown) [Compound 22], the pest or weed control at 50 ppm in test [1] (setting [3]) and in test [1] (setting [6]) was 80 to 100% throughout.
`OC(C#CC1CC1)(c1cncnc1)c1ccc(Oc2ccc(C(F)(F)F)cc2)cn1` (stereo not shown) [Compound 47]: the pest or weed control at 50 ppm in test [1] (setting [3]) is 40 to 59%; in test [1] (setting [6]) it was 80 to 100%.
For `CC(C)(C)C(O)(c1cncnc1)c1ccc(-c2cnc3ccccc3c2)cn1` (stereo not shown) [Compound 127], the pest or weed control at 50 ppm in test [1] (setting [3]) was 80 to 100%.
